How the values were obtained:
AR / CBP ternary complex = AR / CBP ternary complex (Homo sapiens, UniProt P10275+Q92793); test: Ternary complex formation assay (sandwich ELISA, AR capture, CBP antibody detection) in VCaP cell lysates; type: cell-based; settings: treated 1.5 hours, rabbit CBP or p300 antibody detection, average, read-out: Average Ternary Complex
How it was run: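 Sandwich ELISA: plates were coated with anti-AR antibody (AR441) and given lysates of VCaP cells treated 1.5 h with bifunctional compound in charcoal-stripped serum. Co-captured CBP or p300 was probed with rabbit mAbs and HRP secondary. Chemifluorescent signal (ex 570/em 585) was read at 0, 5 and 15 min.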

VCaP cells = test: VCaP growth inhibition assay (CTG); type: cell-based; settings: Homo sapiens, 216 h, 30 pM R1881, 9 days
How it was run: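 Growth was measured by CTG luminescence after a 9-day exposure of VCaP cells to compound (final 10 fM–100 nM, fivefold steps) in the presence of 30 pM final R1881, in phenol red-free DMEM/5% CSS. IC50 values were derived by nonlinear 4-parameter regression of RLU against concentration.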

Sequence of AR / CBP ternary complex (P10275 whole entry): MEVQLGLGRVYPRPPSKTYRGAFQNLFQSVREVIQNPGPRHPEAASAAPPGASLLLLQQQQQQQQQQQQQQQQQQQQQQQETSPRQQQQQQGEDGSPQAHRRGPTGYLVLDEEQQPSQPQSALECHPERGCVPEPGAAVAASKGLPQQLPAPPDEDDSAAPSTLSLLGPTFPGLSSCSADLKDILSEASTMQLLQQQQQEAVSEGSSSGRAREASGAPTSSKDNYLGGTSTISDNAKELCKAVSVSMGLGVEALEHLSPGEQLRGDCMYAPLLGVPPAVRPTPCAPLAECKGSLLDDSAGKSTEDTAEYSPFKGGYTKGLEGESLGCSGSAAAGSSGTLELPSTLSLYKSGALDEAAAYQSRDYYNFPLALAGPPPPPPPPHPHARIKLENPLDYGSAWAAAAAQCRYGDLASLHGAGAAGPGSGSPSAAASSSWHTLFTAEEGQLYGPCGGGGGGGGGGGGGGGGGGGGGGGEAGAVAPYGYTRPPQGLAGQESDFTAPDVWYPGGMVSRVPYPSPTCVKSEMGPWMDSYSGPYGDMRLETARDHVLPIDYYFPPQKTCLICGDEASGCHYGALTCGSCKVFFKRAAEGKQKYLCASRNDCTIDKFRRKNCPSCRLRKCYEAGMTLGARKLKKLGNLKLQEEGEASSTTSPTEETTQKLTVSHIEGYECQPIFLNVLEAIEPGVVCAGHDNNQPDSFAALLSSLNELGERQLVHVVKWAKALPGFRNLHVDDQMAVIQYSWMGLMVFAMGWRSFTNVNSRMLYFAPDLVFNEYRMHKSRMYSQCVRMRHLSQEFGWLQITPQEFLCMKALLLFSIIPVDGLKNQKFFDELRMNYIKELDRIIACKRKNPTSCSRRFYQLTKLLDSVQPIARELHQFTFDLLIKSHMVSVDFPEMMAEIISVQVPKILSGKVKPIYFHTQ
Sequence of AR / CBP ternary complex (Q92793 2-2442): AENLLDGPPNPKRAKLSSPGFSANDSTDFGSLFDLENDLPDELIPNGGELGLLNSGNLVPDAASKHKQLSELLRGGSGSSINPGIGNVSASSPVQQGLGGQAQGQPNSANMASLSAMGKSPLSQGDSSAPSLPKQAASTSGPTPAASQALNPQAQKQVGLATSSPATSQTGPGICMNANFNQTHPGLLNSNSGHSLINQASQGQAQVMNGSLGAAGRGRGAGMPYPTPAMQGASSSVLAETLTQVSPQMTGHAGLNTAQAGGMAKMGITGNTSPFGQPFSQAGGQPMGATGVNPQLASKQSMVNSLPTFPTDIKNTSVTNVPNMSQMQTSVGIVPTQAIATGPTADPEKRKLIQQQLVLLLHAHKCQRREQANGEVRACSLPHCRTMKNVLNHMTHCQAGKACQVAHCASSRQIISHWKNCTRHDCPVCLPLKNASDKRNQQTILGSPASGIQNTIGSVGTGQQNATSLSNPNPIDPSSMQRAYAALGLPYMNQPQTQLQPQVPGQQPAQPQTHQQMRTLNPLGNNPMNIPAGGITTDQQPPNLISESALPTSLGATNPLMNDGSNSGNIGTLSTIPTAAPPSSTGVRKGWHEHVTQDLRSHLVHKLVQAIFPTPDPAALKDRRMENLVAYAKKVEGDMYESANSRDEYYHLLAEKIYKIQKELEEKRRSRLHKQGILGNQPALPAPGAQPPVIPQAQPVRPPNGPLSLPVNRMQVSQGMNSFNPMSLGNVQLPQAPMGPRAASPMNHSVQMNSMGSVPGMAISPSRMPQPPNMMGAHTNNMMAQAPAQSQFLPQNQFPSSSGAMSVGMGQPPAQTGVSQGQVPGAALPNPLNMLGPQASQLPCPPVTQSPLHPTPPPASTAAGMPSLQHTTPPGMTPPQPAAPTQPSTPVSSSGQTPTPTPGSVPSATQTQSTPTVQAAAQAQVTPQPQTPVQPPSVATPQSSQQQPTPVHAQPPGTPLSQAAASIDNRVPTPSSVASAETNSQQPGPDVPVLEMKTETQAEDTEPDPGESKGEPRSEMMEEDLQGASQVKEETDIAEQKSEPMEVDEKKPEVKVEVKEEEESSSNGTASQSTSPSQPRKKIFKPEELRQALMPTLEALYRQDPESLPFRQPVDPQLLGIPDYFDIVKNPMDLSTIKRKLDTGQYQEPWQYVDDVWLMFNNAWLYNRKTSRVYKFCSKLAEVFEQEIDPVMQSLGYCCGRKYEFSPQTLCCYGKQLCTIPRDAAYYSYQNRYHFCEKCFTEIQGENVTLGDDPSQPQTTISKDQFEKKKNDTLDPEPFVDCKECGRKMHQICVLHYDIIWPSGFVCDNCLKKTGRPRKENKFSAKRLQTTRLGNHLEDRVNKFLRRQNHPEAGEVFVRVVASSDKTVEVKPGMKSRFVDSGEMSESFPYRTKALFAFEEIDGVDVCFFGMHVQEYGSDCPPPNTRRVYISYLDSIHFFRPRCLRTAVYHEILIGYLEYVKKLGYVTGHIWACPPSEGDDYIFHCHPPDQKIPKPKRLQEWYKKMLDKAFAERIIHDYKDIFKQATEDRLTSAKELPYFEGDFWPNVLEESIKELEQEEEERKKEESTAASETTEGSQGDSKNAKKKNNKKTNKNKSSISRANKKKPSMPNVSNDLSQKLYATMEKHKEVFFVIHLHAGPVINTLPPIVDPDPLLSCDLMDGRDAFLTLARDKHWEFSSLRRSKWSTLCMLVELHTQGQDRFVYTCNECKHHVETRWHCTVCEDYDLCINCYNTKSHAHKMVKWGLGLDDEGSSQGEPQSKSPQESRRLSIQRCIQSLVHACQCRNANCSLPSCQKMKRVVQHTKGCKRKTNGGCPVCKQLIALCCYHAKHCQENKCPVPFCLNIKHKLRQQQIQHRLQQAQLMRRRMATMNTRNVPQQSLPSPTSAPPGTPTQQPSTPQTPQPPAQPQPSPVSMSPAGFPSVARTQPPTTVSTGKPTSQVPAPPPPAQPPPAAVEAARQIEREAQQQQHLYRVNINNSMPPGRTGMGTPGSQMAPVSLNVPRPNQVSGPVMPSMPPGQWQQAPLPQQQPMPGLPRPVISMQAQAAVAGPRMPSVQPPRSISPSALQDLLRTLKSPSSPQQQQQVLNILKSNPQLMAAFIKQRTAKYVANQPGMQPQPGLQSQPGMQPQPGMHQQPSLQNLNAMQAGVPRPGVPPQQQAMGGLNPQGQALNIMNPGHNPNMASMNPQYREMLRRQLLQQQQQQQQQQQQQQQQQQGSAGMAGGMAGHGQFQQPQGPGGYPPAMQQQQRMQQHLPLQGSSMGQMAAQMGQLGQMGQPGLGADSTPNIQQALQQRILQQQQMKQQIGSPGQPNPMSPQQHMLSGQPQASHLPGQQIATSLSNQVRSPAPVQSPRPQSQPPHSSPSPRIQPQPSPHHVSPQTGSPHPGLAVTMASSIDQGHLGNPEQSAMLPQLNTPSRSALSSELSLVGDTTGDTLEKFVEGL

Structure (SMILES) | EC50 (AR / CBP ternary complex) [nM] | IC50 (VCaP cells) [nM]
CC(=O)N1CCc2c(c(N3CCCc4cc(-c5cnn(C)c5)c(C(F)F)cc43)nn2C2CCN(CC3C(C)CN(c4ccc(C(=O)N[C@H]5CC[C@H](Oc6ccc(C#N)c(Cl)c6)CC5)nn4)CC3C)CC2)C1 (some centres unmarked) [Compound 217, 6-[4-[[4-[5-acetyl-3-[7-(difluoromethyl)-6-(1-methylpyrazol-4-yl)-3,4-dihydro-2H-quinolin-1-yl]-6,7-dihydro-4H-pyrazolo[4,3-c]pyridin-1-yl]-1-piperidyl]methyl]-3,5-dimethyl-1-piperidyl]-N-[4-(3-chloro-4-cyano-phenoxy)cyclohexyl]pyridazine-3-carboxamide] | < 1 | ≤ 0.1
CC(=O)N1CCc2c(c(N3CCCc4cc(-c5cnn(C)c5)c(C(F)F)cc43)nn2C2CCN(C3CC(C#Cc4ccc(C(=O)N[C@H]5CC[C@H](Oc6ccc(C#N)c(Cl)c6)CC5)nn4)C3)CC2)C1 (some centres unmarked) [Compound 195, 6-[2-[3-[4-[5-acetyl-3-[7-(difluoromethyl)-6-(1-methylpyrazol-4-yl)-3,4-dihydro-2H-quinolin-1-yl]-6,7-dihydro-4H-pyrazolo[4,3-c]pyridin-1-yl]-1-piperidyl]cyclobutyl]ethynyl]-N-[4-(3-chloro-4-cyano-phenoxy)cyclohexyl]pyridazine-3-carboxamide] | < 1 | ≤ 0.1
CC(=O)N1CCc2c(c(N3CCCc4cc(-c5cnn(C)c5)c(C(F)F)cc43)nn2CC2CC3(CCN(c4ccc(C(=O)N[C@H]5CC[C@H](Oc6ccc(C#N)c(Cl)c6)CC5)nn4)CC3)C2)C1 [Compound 130, 6-[2-[[5-acetyl-3-[7-(difluoromethyl)-6-(1-methylpyrazol-4-yl)-3,4-dihydro-2H-quinolin-1-yl]-6,7-dihydro-4H-pyrazolo[4,3-c]pyridin-1-yl]methyl]-7-azaspiro[3.5]nonan-7-yl]-N-[4-(3-chloro-4-cyano-phenoxy)cyclohexyl]pyridazine-3-carboxamide] | > 100 | 0.1 to 1
CC(=O)N1CCc2c(c(-c3cccc4cc(-c5cnn(CCC6CCN(c7ccc(C(=O)N[C@H]8CC[C@H](Oc9ccc(C#N)c(Cl)c9)CC8)nn7)CC6)c5)ncc34)nn2C)C1 [Compound 8, 6-[4-[2-[4-[8-(5-acetyl-1-methyl-6,7-dihydro-4H-pyrazolo[4,3-c]pyridin-3-yl)-3-isoquinolyl]pyrazol-1-yl]ethyl]-1-piperidyl]-N-[4-(3-chloro-4-cyano-phenoxy)cyclohexyl]pyridazine-3-carboxamide] | < 1 | ≤ 0.1
CC(=O)N1CCc2c(c(-c3cccc4cc(-c5ccc(CCC6CC7(C6)CN(c6ccc(C(=O)N[C@H]8CC[C@H](Oc9ccc(C#N)c(Cl)c9)CC8)nn6)C7)nc5)ncc34)nn2C)C1 [Compound 51, 6-[6-[2-[5-[8-(5-acetyl-1-methyl-6,7-dihydro-4H-pyrazolo[4,3-c]pyridin-3-yl)-3-isoquinolyl]-2-pyridyl]ethyl]-2-azaspiro[3.3]heptan-2-yl]-N-[4-(3-chloro-4-cyano-phenoxy)cyclohexyl]pyridazine-3-carboxamide] | < 1 | 0.1 to 1
CC(=O)N1CCc2c(c(N3CCCc4cc(-c5cnn(C)c5)c(C(F)F)cc43)nn2C2CCC3(CC2)CCN(C2CN(c4ccc(C(=O)NC5CCC(Oc6ccc(C#N)c(Cl)c6)CC5)nn4)C2)CC3)C1 (centres unmarked) [Compound 197, 6-[3-[9-[5-acetyl-3-[7-(difluoromethyl)-6-(1-methylpyrazol-4-yl)-3,4-dihydro-2H-quinolin-1-yl]-6,7-dihydro-4H-pyrazolo[4,3-c]pyridin-1-yl]-3-azaspiro[5.5]undecan-3-yl]azetidin-1-yl]-N-[4-(3-chloro-4-cyanophenoxy)cyclohexyl]pyridazine-3-carboxamide] | < 1 | ≤ 0.1
Cc1cc2c(N3CCN(C)c4cc(C5CC5)ncc43)cc(N3CCN(CC4CCN(c5ccc(C(=O)N[C@H]6CC[C@H](Oc7ccc(C#N)c(Cl)c7)CC6)nn5)CC4)CC3)cc2n(C)c1=O [Compound 138, N-[4-(3-chloro-4-cyano-phenoxy)cyclohexyl]-6-[4-[[4-[5-(7-cyclopropyl-1-methyl-2,3-dihydropyrido[3,4-b]pyrazin-4-yl)-1,3-dimethyl-2-oxo-7-quinolyl]piperazin-1-yl]methyl]-1-piperidyl]pyridazine-3-carboxamide] | 1 to 10 | 1 to 100
CC(=O)N1CCc2c(c(N3CCCc4ccc(C(F)F)cc43)nn2C2CCN(C(=O)C3CCN(c4ccc(C(=O)N[C@H]5CC[C@H](Oc6ccc(C#N)c(Cl)c6)CC5)nn4)CC3)CC2)C1 [Compound 62, 6-[4-[4-[5-acetyl-3-[7-(difluoromethyl)-3,4-dihydro-2H-quinolin-1-yl]-6,7-dihydro-4H-pyrazolo[4,3-c]pyridin-1-yl]piperidine-1-carbonyl]-1-piperidyl]-N-[4-(3-chloro-4-cyano-phenoxy)cyclohexyl]pyridazine-3-carboxamide] | < 1 | ≤ 0.1
CC(=O)N1CCc2c(c(N3CCCc4cc(-c5nccs5)c(C(F)F)cc43)nn2C2CCN(CC3CCN(c4ccc(C(=O)N[C@H]5CC[C@H](Oc6ccc(C#N)c(Cl)c6)CC5)nn4)CC3)CC2)C1 [Compound 255, 6-[4-[[4-[5-acetyl-3-[7-(difluoromethyl)-6-thiazol-2-yl-3,4-dihydro-2H-quinolin-1-yl]-6,7-dihydro-4H-pyrazolo[4,3-c]pyridin-1-yl]-1-piperidyl]methyl]-1-piperidyl]-N-[4-(3-chloro-4-cyano-phenoxy)cyclohexyl]pyridazine-3-carboxamide] | < 1 | 0.1 to 1
CC(=O)N1CCc2c(c(N3CCCc4cc(C)ncc43)nn2C2CCN(CC3CCN(c4ccc(C(=O)N[C@H]5CC[C@H](Oc6ccc(C#N)c(Cl)c6)CC5)nn4)CC3)CC2)C1 [Compound 107, 6-[4-[[4-[5-acetyl-3-(6-methyl-3,4-dihydro-2H-1,7-naphthyridin-1-yl)-6,7-dihydro-4H-pyrazolo[4,3-c]pyridin-1-yl]-1-piperidyl]methyl]-1-piperidyl]-N-[4-(3-chloro-4-cyano-phenoxy)cyclohexyl]pyridazine-3-carboxamide] | < 1 | ≤ 0.1
CN1C(=O)CCc2cc(N3CCCc4cc(-c5ccc(CCC6CCN(c7ccc(C(=O)N[C@H]8CC[C@H](Oc9ccc(C#N)c(Cl)c9)CC8)nn7)CC6)nc5)c(C(F)F)cc43)ccc21 [Compound 59, N-[4-(3-chloro-4-cyano-phenoxy)cyclohexyl]-6-[4-[2-[5-[7-(difluoromethyl)-1-(1-methyl-2-oxo-3,4-dihydroquinolin-6-yl)-3,4-dihydro-2H-quinolin-6-yl]-2-pyridyl]ethyl]-1-piperidyl]pyridazine-3-carboxamide] | > 100 | > 100
CC(=O)N1CCc2c(c(N3CCCc4cc(C#N)c(C(F)F)cc43)nn2C2CCN(C[C@H]3[C@H](C)CN(c4ccc(C(=O)N[C@H]5CC[C@H](Oc6ccc(C#N)c(Cl)c6)CC5)nn4)C[C@@H]3C)CC2)C1 [Compound 286, 6-[4-[[4-[5-acetyl-3-[6-cyano-7-(difluoromethyl)-3,4-dihydro-2H-quinolin-1-yl]-6,7-dihydro-4H-pyrazolo[4,3-c]pyridin-1-yl]-1-piperidyl]methyl]-3,5-dimethyl-1-piperidyl]-N-[4-(3-chloro-4-cyano-phenoxy)cyclohexyl]pyridazine-3-carboxamide] | < 1 | ≤ 0.1
CC(=O)N1CCc2c(c(-c3cccc4nc(-c5cnn(CCC6CCN(c7ccc(C(=O)N[C@H]8CC[C@H](Oc9ccc(C#N)c(Cl)c9)CC8)nn7)CC6)c5)ncc34)nn2C2CCOCC2)C1 [Compound 70] | < 1 | 0.1 to 1
CC(=O)N1CCc2c(c(N3CCCc4cc(C#N)ccc43)nn2C2CCN(C[C@H]3CCN(c4ccc(C(=O)N[C@H]5CC[C@H](Oc6ccc(C#N)c(Cl)c6)CC5)nn4)C[C@H]3C)CC2)C1 [Compound 103, 6-[4-[[4-[5-acetyl-3-(6-cyano-3,4-dihydro-2H-quinolin-1-yl)-6,7-dihydro-4H-pyrazolo[4,3-c]pyridin-1-yl]-1-piperidyl]methyl]-3-methyl-1-piperidyl]-N-[4-(3-chloro-4-cyano-phenoxy)cyclohexyl] pyridazine-3-carboxamide] | < 1 | 0.1 to 1
CC(=O)N1CCc2c(c(N3CCCc4cc(-c5cnn(C)c5)c(C(F)F)cc43)nn2C2CCN(C3CCC4(CC3)CC(Oc3ccc(C(=O)N[C@H]5CC[C@H](Oc6ccc(C#N)c(Cl)c6)CC5)nn3)C4)CC2)C1 (some centres unmarked) [Compound 245, 6-[7-[4-[5-acetyl-3-[7-(difluoromethyl)-6-(1-methylpyrazol-4-yl)-3,4-dihydro-2H-quinolin-1-yl]-6,7-dihydro-4H-pyrazolo[4,3-c]pyridin-1-yl]-1-piperidyl]spiro[3.5]nonan-2-yl]oxy-N-[4-(3-chloro-4-cyano-phenoxy)cyclohexyl]pyridazine-3-carboxamide] | < 1 | ≤ 0.1
CC(=O)N1CCc2c(c(N3CCCc4cc(-c5cnn(C)c5)c(C(F)F)cc43)nn2[C@H]2CC[C@]3(CCN(C4CN(c5ccc(C(=O)N[C@H]6CC[C@H](Oc7ccc(C#N)c(Cl)c7)CC6)nn5)C4)C3)CC2)C1 [Compound 262, 6-[3-[8-[5-acetyl-3-[7-(difluoromethyl)-6-(1-methylpyrazol-4-yl)-3,4-dihydro-2H-quinolin-1-yl]-6,7-dihydro-4H-pyrazolo[4,3-c]pyridin-1-yl]-2-azaspiro[4.5]decan-2-yl]azetidin-1-yl]-N-[4-(3-chloro-4-cyano-phenoxy)cyclohexyl]pyridazine-3-carboxamide] | < 1 | 0.1 to 1

Reference: patent US20250136578A1 (Kolm Therapeutics Inc., priority 2023, published 2025)
